{
  "source": "patent US20050227949A1",
  "about": "“Compositions and methods for treatment of viral and bacterial infections” (priority 2004, published 2005)",
  "origin": "cited, not measured here",
  "key": {"HIV": {"tested_on": "HIV", "settings": "previously reported"}, "suppressor T-cells": {"tested_on": "suppressor T-cells", "settings": "further reported uses; probably due to blockade of selected suppressor T-cells"}, "herpes simplex": {"tested_on": "herpes simplex", "settings": "previously reported treatment of herpes simplex infections"}},
  "data": [
    {"molecule": "CN/C(=N/CCSCc1nc[nH]c1C)NC#N", "note": "[cimetidine]", "values": [
      {"measurement": "treatment result in HIV patients", "setting": "HIV", "result": "less encouraging results"},
      {"measurement": "immune functions", "setting": "suppressor T-cells", "result": "improvements of various immune functions"},
      {"measurement": "outbreak and duration of herpes zoster", "setting": "herpes simplex", "result": "effectively reduced outbreak and duration of herpes zoster"}
    ]}
  ]
}
